Columns and labels:
[1] = maximum tolerated dose (MTD) in rats; type: in vivo; settings: rat, in vivo, read-out: MTD
Text: The maximum tolerated dose (MTD) in rats is also listed for each compound.

[2] = tested on: vimentin; test: vimentin gene and protein expression in serum-starved hBC; type: cell-based, human; settings: 10 nM, at any time point tested; FIG. 13
Procedure: Vimentin was detected (mRNA and protein) as per the method for desmin described in Example 1B. Vimentin is a fibroblastic cell marker. Quantitative analysis using real-time RT-PCR of vimentin mRNA expression in serum-starved hBC treated with Compound A (10 nM) was examined at different time points (2-12 days). Results are derived from five different experiments from three distinct hBC preparations and are expressed as fold increase compared to time zero. Control, open columns; Compound A, grey columns.
Western blot detection of vimentin in hBC was performed as follows: Thirty ug of proteins were separated by 10% SDS-PAGE, transferred onto nitrocellulose membrane, and probed with anti-vimentin antibody (1:1000). A band of about 61 kDa was detected in each sample of hBC. […] Results are representative of three independent experiments performed using separate hBC preparations.
Immunocytochemical detection of vimentin in hBC was conducted as follows: Cells were seeded onto sterile glasses, treated with Compound A (10 nM) and processed at the indicated time points with an anti-vimentin antibody (1:1000). […] Quantification of three separate experiments from three distinct preparations of hBC is shown in FIG. 15 (control, open columns; Compound A, grey columns). […]

[3] = tested on: bladder strips; test: contractile properties of isolated bladder strips from BOO model rats; design: species or system Sprague-Dawley rats; settings: in vitro test
Procedure: After completion of the cystometries, the rats were sacrified by carbon monoxide asphyxiation followed by exsanguination. The abdomen was accessed through a lower midline incision whereafter the symphysis was opened. The bladder was carefully dissected free, and immediately placed in chilled Krebs solution, and strip preparations were dissected.
The bladder and urethra were separated at the level of the bladder neck, and semicircular strips were prepared from the middle third of the detrusor (1×2×5 mm). All preparations were used immediately after removal.
The strips were transferred to 5 ml tissue baths containing Krebs solution. The Krebs solution was maintained at 37° C. and bubbled continuously with a mixture of 95% O2 and 5% CO2, resulting in a pH of 7.4. The strips were suspended between two L-shaped hooks by means of silk ligatures. One hook was connected to a movable unit allowing adjustment of passive tension, and the other to a Grass FT03C (Grass Instruments Co, MA, USA) force transducer. Isometric tension was recorded using a Grass polygraph (7D). After mounting, the strips were stretched to a passive tension of 4 mN (the same tension for all preparations) and allowed to equilibrate for 45-60 min before further experiments were performed.
Electrical field stimulation (EFS) was accomplished by means of two platinum electrodes placed on either side of the preparations, and was performed using a Grass S48 or S88 stimulator, delivering single square wave pulses at selected frequencies. The train duration was 5 s, the pulse duration 0.8 ms, and the stimulation interval 2 min. The polarity of the electrodes was shifted after each pulse by means of a polarity changing unit.
Each experiment was started by exposing the preparations to a high K^+ (124 mM) Krebs solution until two reproducible contractions are obtained. Then the following experiments were carried out:
a) Electrical stimulation of nerves was performed and frequency-response relations obtained, in the presence and absence of atropine.
b) Concentration-response curves were constructed for carbachol and ATP […]

[4] = tested on: rats with CYP-induced cystitis; test: cyclophosphamide (CYP) induced chronic cystitis in rats: conscious cystometry; type: in vivo, Wistar rats; settings: 30 and 75 ug/kg, control v Comp A

In the case of `C=C1/C(=C\C=C2/CCC[C@]3(C)C([C@@H](C)C/C=C/C(O)(CC)CC)=CC[C@@H]23)C[C@@H](O)C[C@@H]1F` [Compound A, 1-alpha-fluoro-25-hydroxy-16,23E-diene-26,27-bishomo-20-epi-cholecalciferol], the MTD [1] is reported as 0.1 mg/kg, the “vimentin protein expression (Western blot)” value [2] is reported as “failed to affect” and the “response to carbachol of bladder strips” value [3] is reported as “beneficial effect”. The “response to EFS of bladder strips” value ([3]; electrical field stimulation, FIG. 21) was “beneficial effect”, the “K response of bladder strips” value ([3]; strips from treated rats, high K+ (124 mM)) was “beneficial effect” and the bladder capacity ([4]; FIG. 23) was “increase”. For the same molecule, the non-voiding bladder contractions ([4]; FIG. 24) was “decrease”.

Reference: patent US20070054887A1, “Methods for treating bladder dysfunction” (BioXell S.p.A, priority 2003, published 2007)
